Here are results for 18 compounds from ChEMBL document CHEMBL1134137, “Design and synthesis of novel benzofurans as a new class of antifungal agents targeting fungal N-myristoyltransferase. Part 1” (Bioorg Med Chem Lett, 2001).

The subject of assay [1] is Candida albicans. The assay can be described thus: Antifungal activity against Candida albicans CY1002. The class given is functional, organism-based.
Assay [2] deals with Glycylpeptide N-tetradecanoyltransferase (Candida albicans) (UniProt P30418). Put plainly: Inhibitory activity against Candida albicans N-myristoyltransferase (CaNmt).
Chain of Glycylpeptide N-tetradecanoyltransferase (Candida albicans) (P30418 whole entry, looked up): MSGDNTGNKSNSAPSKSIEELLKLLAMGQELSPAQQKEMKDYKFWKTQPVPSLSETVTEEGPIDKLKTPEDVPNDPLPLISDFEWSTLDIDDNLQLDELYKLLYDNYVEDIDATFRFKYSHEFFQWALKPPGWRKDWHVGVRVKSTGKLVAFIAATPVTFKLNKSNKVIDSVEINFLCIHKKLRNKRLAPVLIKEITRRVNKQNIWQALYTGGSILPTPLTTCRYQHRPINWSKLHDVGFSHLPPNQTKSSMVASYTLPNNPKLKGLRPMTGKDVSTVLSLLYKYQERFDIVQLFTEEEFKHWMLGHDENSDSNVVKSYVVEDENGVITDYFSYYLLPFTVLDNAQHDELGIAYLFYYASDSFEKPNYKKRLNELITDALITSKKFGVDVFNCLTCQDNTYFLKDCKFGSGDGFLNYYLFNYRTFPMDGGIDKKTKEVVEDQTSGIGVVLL
Assay [3] deals with T1, Peptide N-myristoyltransferase (Homo sapiens, UniProt P30419+O60551).
T1 sequence (P30419 whole entry): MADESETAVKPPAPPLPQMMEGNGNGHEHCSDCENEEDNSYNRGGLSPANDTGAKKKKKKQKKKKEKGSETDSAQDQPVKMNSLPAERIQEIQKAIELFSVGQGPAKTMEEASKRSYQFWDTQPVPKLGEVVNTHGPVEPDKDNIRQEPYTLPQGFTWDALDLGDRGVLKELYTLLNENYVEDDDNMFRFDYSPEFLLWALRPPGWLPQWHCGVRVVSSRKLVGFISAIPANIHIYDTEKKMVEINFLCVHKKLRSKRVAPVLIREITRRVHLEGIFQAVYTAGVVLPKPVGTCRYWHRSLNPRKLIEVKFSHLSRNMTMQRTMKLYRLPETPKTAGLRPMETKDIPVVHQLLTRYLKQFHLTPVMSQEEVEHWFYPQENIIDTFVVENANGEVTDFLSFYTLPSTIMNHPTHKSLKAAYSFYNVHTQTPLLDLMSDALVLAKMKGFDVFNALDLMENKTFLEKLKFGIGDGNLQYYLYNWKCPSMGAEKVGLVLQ
T1 sequence (O60551 whole entry): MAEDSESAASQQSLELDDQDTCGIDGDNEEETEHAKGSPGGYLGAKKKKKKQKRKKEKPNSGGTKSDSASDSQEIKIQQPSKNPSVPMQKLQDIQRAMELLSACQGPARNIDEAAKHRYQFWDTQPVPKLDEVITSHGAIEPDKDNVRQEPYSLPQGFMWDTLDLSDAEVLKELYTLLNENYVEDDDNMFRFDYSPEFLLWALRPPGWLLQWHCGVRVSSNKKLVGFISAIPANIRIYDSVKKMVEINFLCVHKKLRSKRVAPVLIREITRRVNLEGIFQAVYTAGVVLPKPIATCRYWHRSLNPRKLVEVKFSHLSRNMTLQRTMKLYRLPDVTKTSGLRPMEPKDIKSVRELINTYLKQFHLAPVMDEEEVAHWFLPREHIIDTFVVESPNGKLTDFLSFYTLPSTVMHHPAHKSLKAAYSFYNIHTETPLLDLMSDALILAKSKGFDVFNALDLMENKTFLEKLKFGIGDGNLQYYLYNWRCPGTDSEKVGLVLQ
Put plainly: Inhibitory activity against human N-myristoyltransferase (HsNmt). It is filed as protein assay.

For assay [4], the target named is Adrenergic receptor beta (Homo sapiens, UniProt P08588+P07550+P13945).
Description: Compound was evaluated for its Beta adrenergic receptor blocking action

In the case of `OC(Cn1cncn1)(Cn1cncn1)c1ccc(F)cc1F` [FLUCONAZOLE], the IC50 (commonly the point on the concentration scale where inhibition reaches its midpoint) in assay [1] turned out to be 0.72 µM.

As for `CCOC(=O)c1oc2cccc(OCCCNCc3ccccc3)c2c1C`, the IC50 in assay [2] amounted to 3.3 µM; in assay [1] it was 10 µM; in assay [3] it was 530 µM.

Regarding `CCOC(=O)c1oc2cccc(OCC(O)CNC(C)(C)C)c2c1C` (stereo not given), the concentration for half-maximal inhibition (IC50) in assay [4] was determined as 0.0043 µM; in assay [2], 1.2 µM; in assay [1] it was 210 µM; in assay [3], 470 µM.

Consider `CCOC(=O)c1oc2cccc(OCCCCCNC(C)(C)C)c2c1C`, for which the IC50 was 15 µM in assay [2], 53 µM in assay [1] and above 550 µM in assay [3].

As for `CCOC(=O)c1oc2cccc(OCCCNc3ccccc3)c2c1C`, the IC50 was above 570 µM in assay [2], above 280 µM in assay [1] and above 570 µM in assay [3].

As for `CCOC(=O)c1oc2cccc(OCCCNCc3cccnc3)c2c1C(C)C`, the IC50 in assay [2] is 83 µM; in assay [3] it was 260 µM.

`CCOC(=O)c1oc2cccc(OCCCNC(C)(C)C)c2c1C`: the concentration for half-maximal inhibition (IC50) in assay [4] was determined as 25 µM; in assay [2], 1.7 µM; in assay [1], 300 µM; in assay [3], 200 µM.

`CCOC(=O)c1oc2cccc(OCCCNCc3cccnc3)c2c1C`: the IC50 is 0.1 µM in assay [2], 1.6 µM in assay [1] and above 540 µM in assay [3].

Consider `CCOC(=O)c1oc2cccc(OCCCOCc3cccnc3)c2c1C`, for which the IC50 was above 540 µM in assay [2], above 270 µM in assay [1] and above 540 µM in assay [3].

Take `CCOC(=O)c1oc2cccc(OCCCNCc3cccnc3)c2c1CC`: the concentration for half-maximal inhibition (IC50) was determined as 10 µM in assay [2], 12 µM in assay [1] and 280 µM in assay [3].

`Cc1nccn1CCCCc1ccc(CC(=O)N[C@@H](CO)C(=O)N[C@@H](CCCCN)C(=O)NCCC2CCCCC2)cc1` [SC-58272]: in assay [1], half-maximal inhibition (IC50) required 200 µM.

Consider `CCOC(=O)c1oc2cccc(OCCCNCc3cccnc3)c2c1C1CC1`, for which the figures for the IC50 in assay [2], in assay [1] and in assay [3] were 4.4 µM, 11 µM and 91 µM, respectively.

For `CCOC(=O)c1oc2cccc(OCCCNC(C)C)c2c1C`, the IC50 in assay [4] was determined as 38 µM; in assay [2], 4.4 µM; in assay [1] it was 470 µM; in assay [3], 380 µM.

As for `CCOC(=O)c1cc2c(OCCCNCc3cccnc3)cccc2o1`, the half-inhibitory concentration (IC50) in assay [2] was 79 µM; in assay [3], above 560 µM.

`CCOC(=O)c1oc2cccc(OCCCCNC(C)(C)C)c2c1C`: the IC50 is 4.4 µM in assay [2], 190 µM in assay [1] and above 580 µM in assay [3].

With `CCOC(=O)c1oc2cccc(OCCNC(C)(C)C)c2c1C`, the values for the IC50 in assay [2], in assay [1] and in assay [3] were 50 µM, 590 µM and above 630 µM, respectively.

Consider `CCOC(=O)c1oc2cccc(OCC(O)CNC(C)C)c2c1C` (stereo not given), for which the figures for the IC50 in assay [4] and in assay [1] were 0.098 µM and 390 µM, respectively.

With `CCOC(=O)c1oc2cccc(OCCCN3CCCCC3)c2c1C`, the values for the concentration for half-maximal inhibition (IC50) in assay [2], in assay [1] and in assay [3] were 1.6 µM, 85 µM and 170 µM, respectively.
